In one experiment the target is T1, RXRα (Homo sapiens, UniProt P19793).
T1 construct: made in house; used as extract protein
T1 sequence (P19793 1-462): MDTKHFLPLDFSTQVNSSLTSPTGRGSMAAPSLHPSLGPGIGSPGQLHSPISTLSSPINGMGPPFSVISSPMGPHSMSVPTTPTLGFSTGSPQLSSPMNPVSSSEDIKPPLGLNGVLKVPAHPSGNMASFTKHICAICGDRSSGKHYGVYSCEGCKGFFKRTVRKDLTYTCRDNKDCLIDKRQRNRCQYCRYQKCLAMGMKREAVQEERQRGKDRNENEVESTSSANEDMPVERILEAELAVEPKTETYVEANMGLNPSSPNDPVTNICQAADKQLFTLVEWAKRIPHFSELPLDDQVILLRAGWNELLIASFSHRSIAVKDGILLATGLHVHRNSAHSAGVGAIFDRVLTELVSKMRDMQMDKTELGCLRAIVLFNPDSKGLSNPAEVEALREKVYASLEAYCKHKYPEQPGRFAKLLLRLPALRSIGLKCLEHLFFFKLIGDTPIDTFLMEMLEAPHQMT
Kind of experiment: Ligand binding assay, RXRα. To be noted: receptor expressed in Baculovirus; Cheng-Prussof from IC50. On the procedure: (§1) A holoreceptor transactivation assay and a ligand binding assay which measure the ability of the compounds of the invention to bind to the several retinoid receptor subtypes, respectively, are described in published PCT Application No. WO W093/11755 (particularly on pages 30-33 and 37-41) published on Jun. 24, 1993, the specification of which is also incorporated herein by reference. A description of the ligand binding assay is also provided below.
(§2) All binding assays were performed in a similar fashion. All six receptor types were derived from the expressed receptor type (RAR α, β, Γ and RXR α, β, Γ) expressed in Baculovirus. Stock solutions of all compounds were prepared as 10 mM ethanol solutions and serial dilutions carried out into 1:1 DMSO; ethanol. Assay buffers consisted of the following for all six receptor assays: 8% glycerol, 120 mM KCl, 8 mM Tris, 5 mM CHAPS 4 mM DTT and 0.24 mM PMSF, pH-7.4@room temperature.
(§3) All receptor biding assays were performed in the same manner. The final assay volume was 250 μl and contained from 10-40 μg of extract protein depending on receptor being assayed along with 5 nM of [^3H] all-trans retinoic acid or 10 nM [^3H] 9-cis retinoic acid and varying concentrations of competing ligand at concentrations that ranged from 0-10^−5 M. The assays were formatted for a 96 well minitube system. Incubations were carried out at 4° C. until equilibrium was achieved. Non-specific binding was defined as that binding remaining in the presence of 1000 nM of the appropriate unlabeled retinoic acid isomer. At the end of the incubation period, 50 μl of 6.25% hydroxyapitite was added in the appropriate wash buffer. The wash buffer consisted of 100 mM KCl, 10 mM Tris and either 5 mM CHAPS (RXR α, β, Γ) or 0.5% Triton X-100 (RAR α, β, Γ). The mixture was vortexed and incubated for 10 minutes at 4° C., centrifuged and the supernatant removed. The hydroxyapitite was washed three more times with the appropriate wash buffer. The receptor-ligand complex was adsorbed by the hydroxyapitite. The amount of receptor-ligand complex was determined by liquid scintillation counting of hydroxyapitite pellet.
(§4) After correcting for non-specific binding, IC50 values were determined. […] The IC50 value was determined graphically from a loglogit plot of the data. The […] were determined by application of the Cheng-Prussof equation to the IC50 values, the labeled ligand concentration and the Kd of the labeled ligand.
(§5) The results of ligand binding assay are expressed in Kd numbers. (See Chena et al. Biochemical Pharmacology Vol. 22 pp 3099-3108, expressly incorporated herein by reference.)

The target of another experiment is T2, RXRβ (UniProt P28704).
T2 construct: All six receptor types were derived from the expressed receptor type (RAR α, β, Γ and RXR α, β, Γ) expressed in Baculovirus
T2 sequence (P28704 1-520): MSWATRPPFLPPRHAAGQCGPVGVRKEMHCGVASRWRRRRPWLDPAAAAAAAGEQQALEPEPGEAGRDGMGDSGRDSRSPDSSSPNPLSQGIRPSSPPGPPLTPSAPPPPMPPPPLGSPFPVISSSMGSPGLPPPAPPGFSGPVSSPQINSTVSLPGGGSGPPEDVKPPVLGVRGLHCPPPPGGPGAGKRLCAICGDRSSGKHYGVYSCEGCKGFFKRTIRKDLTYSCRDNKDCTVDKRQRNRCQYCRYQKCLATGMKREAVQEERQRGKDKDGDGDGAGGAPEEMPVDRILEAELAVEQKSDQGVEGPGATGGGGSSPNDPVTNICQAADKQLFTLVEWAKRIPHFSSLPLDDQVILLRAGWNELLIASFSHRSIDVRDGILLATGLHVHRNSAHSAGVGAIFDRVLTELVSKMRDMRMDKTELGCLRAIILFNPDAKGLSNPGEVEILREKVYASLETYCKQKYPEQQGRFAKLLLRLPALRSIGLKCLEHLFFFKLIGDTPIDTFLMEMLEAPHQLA
Kind of experiment: Ligand binding assay, RXRβ. To be noted: receptor expressed in Baculovirus; Cheng-Prussof from IC50. The protocol: (§6) A description of the ligand binding assay is also provided below.
as §2
as §3, with “At the end of the incubation period, 50 μl of 6.25% hydroxyapitite was added in the appropriate wash buffer.” left out
as §4
(§7) The results of ligand binding assay are expressed in Kd numbers.

Another experiment addresses T3, RXRΓ (UniProt P28705).
T3 construct: All six receptor types were derived from the expressed receptor type (RAR α, β, Γ and RXR α, β, Γ) expressed in Baculovirus
T3 sequence (P28705 1-463): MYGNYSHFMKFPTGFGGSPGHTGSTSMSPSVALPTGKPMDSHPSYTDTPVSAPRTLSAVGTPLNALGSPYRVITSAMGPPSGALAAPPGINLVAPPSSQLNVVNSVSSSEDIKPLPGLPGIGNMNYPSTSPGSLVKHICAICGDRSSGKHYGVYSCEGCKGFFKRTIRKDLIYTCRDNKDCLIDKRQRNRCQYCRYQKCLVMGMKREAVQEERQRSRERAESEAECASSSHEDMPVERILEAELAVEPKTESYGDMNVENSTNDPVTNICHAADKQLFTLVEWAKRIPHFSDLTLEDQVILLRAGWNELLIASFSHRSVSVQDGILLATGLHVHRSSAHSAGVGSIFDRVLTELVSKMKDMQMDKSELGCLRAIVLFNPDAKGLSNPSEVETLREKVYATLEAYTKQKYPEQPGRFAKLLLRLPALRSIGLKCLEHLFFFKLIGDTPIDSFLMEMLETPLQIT
Kind of experiment: Ligand binding assay, RXRΓ. To be noted: receptor expressed in Baculovirus; Cheng-Prussof from IC50. The protocol: as §6, §2
as §3, with “At the end of the incubation period, 50 μl of 6.25% hydroxyapitite was added in the appropriate wash buffer.” left out
as §4, §7

The target in another experiment is T4, RARα (Homo sapiens, UniProt P10276).
T4 construct: made in house; used as extract protein
T4 sequence (P10276 1-462): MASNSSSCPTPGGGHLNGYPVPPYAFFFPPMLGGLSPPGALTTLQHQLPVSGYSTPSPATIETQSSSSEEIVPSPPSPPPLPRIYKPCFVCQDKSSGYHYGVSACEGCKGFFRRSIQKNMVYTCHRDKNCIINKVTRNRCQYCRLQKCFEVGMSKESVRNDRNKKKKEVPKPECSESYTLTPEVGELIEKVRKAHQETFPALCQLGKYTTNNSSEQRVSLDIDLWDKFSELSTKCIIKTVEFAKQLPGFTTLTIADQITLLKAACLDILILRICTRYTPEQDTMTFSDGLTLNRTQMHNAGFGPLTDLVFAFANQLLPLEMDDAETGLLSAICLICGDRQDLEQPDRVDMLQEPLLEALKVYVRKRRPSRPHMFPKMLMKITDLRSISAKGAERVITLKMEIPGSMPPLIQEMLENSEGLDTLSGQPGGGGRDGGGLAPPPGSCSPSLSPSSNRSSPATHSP
As to the kind of experiment: Ligand binding assay, RARα. The settings on record: receptor expressed in Baculovirus; [3H] all-trans retinoic acid; Cheng-Prussof from IC50. The protocol: as §1, §2, §3, §4, §5

A further experiment concerns the target T5, RARΓ (Homo sapiens, UniProt P13631).
T5 construct: made in house; used as extract protein
T5 sequence (P13631 1-454): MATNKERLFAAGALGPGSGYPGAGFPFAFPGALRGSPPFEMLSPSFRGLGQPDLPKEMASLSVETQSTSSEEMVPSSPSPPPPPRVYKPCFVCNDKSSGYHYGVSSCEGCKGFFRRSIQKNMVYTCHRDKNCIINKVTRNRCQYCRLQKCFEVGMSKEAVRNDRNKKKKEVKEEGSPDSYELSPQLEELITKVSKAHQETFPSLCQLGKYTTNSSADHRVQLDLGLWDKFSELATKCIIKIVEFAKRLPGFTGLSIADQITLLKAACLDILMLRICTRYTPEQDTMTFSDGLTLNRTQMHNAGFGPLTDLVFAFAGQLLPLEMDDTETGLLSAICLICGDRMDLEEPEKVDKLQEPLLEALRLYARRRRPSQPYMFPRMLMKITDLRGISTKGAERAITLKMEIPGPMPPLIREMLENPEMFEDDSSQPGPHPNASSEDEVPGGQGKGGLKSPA
Kind of experiment: Ligand binding assay, RARΓ. The settings on record: receptor expressed in Baculovirus; Cheng-Prussof from IC50. On the procedure:
as §1, §2
as §3, with “The wash buffer consisted of 100 mM KCl, 10 mM Tris and either 5 mM CHAPS (RXR α, β, Γ) or 0.5% Triton X-100 (RAR α, β, Γ). The mixture was vortexed and incubated for 10 minutes at 4° C., centrifuged and the supernatant removed. The hydroxyapitite was washed three more times with the appropriate wash buffer. The receptor-ligand complex was adsorbed by the hydroxyapitite.” left out
(§8) After correcting for non-specific binding, IC50 values were determined. […] The IC50 value was determined graphically from a loglogit plot of the data. The […] were determined by application of the Cheng-Prussof equation to the IC50 values, the labeled ligand concentration and the Kd of the labeled ligand. […]

For the next experiment, the target named is T6, RARβ (Homo sapiens, UniProt P10826).
T6 construct: made in house; used as extract protein
T6 sequence (P10826 1-455): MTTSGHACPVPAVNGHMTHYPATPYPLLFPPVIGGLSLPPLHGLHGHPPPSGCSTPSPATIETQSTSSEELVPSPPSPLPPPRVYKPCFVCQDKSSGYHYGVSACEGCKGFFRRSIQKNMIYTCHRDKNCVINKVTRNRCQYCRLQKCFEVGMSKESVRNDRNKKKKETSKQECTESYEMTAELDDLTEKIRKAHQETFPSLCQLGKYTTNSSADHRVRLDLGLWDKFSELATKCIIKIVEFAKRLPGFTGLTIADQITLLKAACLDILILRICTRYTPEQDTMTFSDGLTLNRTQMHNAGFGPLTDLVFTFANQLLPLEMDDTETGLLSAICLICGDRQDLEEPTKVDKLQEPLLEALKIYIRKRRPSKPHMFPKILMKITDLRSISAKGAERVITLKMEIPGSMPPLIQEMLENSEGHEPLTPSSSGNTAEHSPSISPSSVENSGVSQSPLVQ
As to the kind of experiment: Ligand binding assay, RARβ. To be noted: receptor expressed in Baculovirus; Cheng-Prussof from IC50. The protocol:
as §1, §2
as §3, with “The wash buffer consisted of 100 mM KCl, 10 mM Tris and either 5 mM CHAPS (RXR α, β, Γ) or 0.5% Triton X-100 (RAR α, β, Γ). The mixture was vortexed and incubated for 10 minutes at 4° C., centrifuged and the supernatant removed. The hydroxyapitite was washed three more times with the appropriate wash buffer. The receptor-ligand complex was adsorbed by the hydroxyapitite.” left out
as §8

By Kd is commonly meant a measure of binding affinity in units of concentration. Higher therefore signals lower affinity. In the case of “2-Fluoro-4-[(3′,5′-di-t-butyl)phenylcarbamoyl]benzoic Acid [Compound 6]”, the Kd on RXRα, on RXRβ and at RXRΓ was more than 1000 nM each time.
As for `CC(C)(C)c1cc(C(=O)Nc2ccc(C(=O)O)cc2)cc(C(C)(C)C)n1` [Compound 4], the Kd on RXRα is more than 1000 nM; on RARα, 19 nM; on RARΓ it was more than 1000 nM; on RXRβ, more than 1000 nM; on RARβ, more than 1000 nM; on RXRΓ, more than 1000 nM.
In the case of `CC(C)(C)c1cc(C(=O)Nc2ccc(C(=O)O)c(F)c2)c(O)c(C(C)(C)C)c1` [Compound 8], the Kd at RXRα is more than 1000 nM; at RARα, 77 nM; at RARΓ, more than 1000 nM; on RXRβ, more than 1000 nM; on RARβ, more than 1000 nM; on RXRΓ it was more than 1000 nM.
Take `CC(C)(C)c1cc(C(=O)Nc2cc(F)c(C(=O)O)c(F)c2)cc(C(C)(C)C)n1` [Compound 10]: the Kd was 62 nM at RARα, more than 1000 nM on RXRβ and more than 1000 nM on RXRΓ.
Take `CC(C)(C)c1cc(C(=O)Nc2cc(F)c(C(=O)O)c(F)c2)cc(C(C)(C)C)c1` [Compound 12]: the Kd on RARα is 87 nM; at RXRβ it was more than 1000 nM; on RXRΓ, more than 1000 nM.
Take `CC(C)(C)c1cc(C(=O)Nc2ccc(C(=O)O)c([N+](=O)[O-])c2)cc(C(C)(C)C)n1` [Compound 14]: the Kd on RARα was 94 nM; at RXRβ it was more than 1000 nM; at RXRΓ it was more than 1000 nM.
On to `CC(C)(C)c1cc(C(=O)Nc2ccc(C(=O)O)cc2)cc(C(C)(C)C)c1` [Compound 15, reference compound], for which the Kd on RXRα is more than 1000 nM; at RARα, 37 nM; at RARΓ, more than 1000 nM; on RXRβ, more than 1000 nM; on RARβ, more than 1000 nM; at RXRΓ, more than 1000 nM.

The values above are taken from US20020091262A1, “Substituted aryl or heteroarylamides having retinoid-like biological activity” (Allergan, priority 1995, published 2002).
